Assays:
SJSA-1 = assay: cells; conditions: Homo sapiens
[1] = target: Histone acetyltransferase p300/Hypoxia-inducible factor 1-alpha (Homo sapiens, UniProt Q09472+Q16665); assay: Inhibition of hypoxia-induced HIF1alpha/P300 interaction (unknown origin) incubated for 30 mins for fluorescence anisotropy competition assay; format: protein-complex assay
[2] = target: T1, Islet amyloid polypeptide (Homo sapiens) (UniProt P10997); assay: Disruption of beta-fibrillation of IAPP (unknown origin) assessed as half life of protein
T1 sequence (whole entry): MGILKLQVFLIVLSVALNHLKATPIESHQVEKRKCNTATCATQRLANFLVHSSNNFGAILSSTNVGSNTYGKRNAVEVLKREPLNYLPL

[3] = tested on: Human immunodeficiency virus 1; assay: Antiviral activity against HIV-1 pseudotyped virus expressing HXB-2 proteins infected in human TZM-bl cells assessed as inhibition of viral entry by luciferase based analysis; format: functional, organism-based; conditions: Human immunodeficiency virus 1, TZM-bl
[4] = Binding affinity to TAR RNA assessed as dissociation constant
[5] = target: Tumour suppressor p53/oncoprotein Mdm2 (Homo sapiens, UniProt Q00987); assay: Inhibition of HDM2-p53 (unknown origin) protein-protein interaction; format: protein assay
[6] = Inhibition of Mcl-1/NoxaB (unknown origin) protein-protein interaction; design: species or system Homo sapiens
[7] = target: T2, Induced myeloid leukemia cell differentiation protein Mcl-1 (Homo sapiens, UniProt Q07820); assay: Displacement of fluorescein tagged Bak BH3 peptide from MCL-1 (172 to 327 residues) (unknown origin) by fluorescence polarization competition assay
[8] = target: T2, Induced myeloid leukemia cell differentiation protein Mcl-1; assay: Inhibition of FITC-labeled BH3 peptide binding to MCL1 (unknown origin)
N2a [9] = assay: Cytotoxicity against mouse N2a cells; format: functional, cell-based
[10] = target: T3, Amyloid-beta precursor protein (Homo sapiens, UniProt P05067); assay: Binding affinity to amyloid beta 40 (unknown origin) by ITC method
[11] = tested on: Human immunodeficiency virus 1; assay: Antiviral activity against HIV1 RRE-Rev assessed as inhibition of viral replication; format: functional, organism-based
[12] = target: T2, Induced myeloid leukemia cell differentiation protein Mcl-1; assay: Displacement of fluorescent-labeled BH3 peptide from recombinant MCL1 (unknown origin) by fluorescence polarization-based competitive binding assay
[13] = target: T2, Induced myeloid leukemia cell differentiation protein Mcl-1; assay: Binding affinity to fluorescent-labeled BH3 peptide from GST tagged MCL1 (172 to 320 residues) (unknown origin) expressed in Escherichia coli BL21 (DE3) incubated for 15 mins by fluorescence polarization-based competitive binding assay
[14] = target: Myc proto-oncogene protein (Homo sapiens, UniProt P01106); assay: Binding affinity to c-MYC (unknown origin) assessed as dissociation constant
[15] = target: T3, Amyloid-beta precursor protein; assay: Binding affinity to amyloid beta 42 (unknown origin) assessed as dissociation constant
N2a [16] = assay: Effect on mouse N2a cells assessed as rescue of amyloid beta toxicity; format: functional, cell-based
[17] = Binding affinity to RNA S protein (unknown origin) assessed as dissociation constant by ITC method; design: species or system Homo sapiens
Trypanothione reductase = Trypanothione reductase (Leishmania infantum, UniProt A4HSF7); assay: Inhibition of Leishmania infantum TryR oxidoreductase activity expressed in Escherichia coli BL21 (DE3) using TS2 and NADPH as substrate by incubated for 10 mins followed by substrate addition by DTNB-reagent based spectrophotometric method
MDA-MB-231 = assay: Antitumor activity against human MDA-MB-231 cells xenografted in mouse assessed reduction in tumor volume measured for 30 days relative to control; format: functional; design: scale not given: the % may be the effect or the level left; conditions: time 30 day
[18] = target: HIF1A/p300/CREB-binding protein (Homo sapiens, UniProt Q09472+Q16665+Q92793); assay: Binding affinity to hypoxia induced HIF-1 alpha/P300 CH1 domain (323 to 423 residues expressed in Escherichia coli (DE3)/CBP (unknown origin) interaction assessed as dissociation constant

T2 sequence (Q07820 whole entry, the tested form may be a part): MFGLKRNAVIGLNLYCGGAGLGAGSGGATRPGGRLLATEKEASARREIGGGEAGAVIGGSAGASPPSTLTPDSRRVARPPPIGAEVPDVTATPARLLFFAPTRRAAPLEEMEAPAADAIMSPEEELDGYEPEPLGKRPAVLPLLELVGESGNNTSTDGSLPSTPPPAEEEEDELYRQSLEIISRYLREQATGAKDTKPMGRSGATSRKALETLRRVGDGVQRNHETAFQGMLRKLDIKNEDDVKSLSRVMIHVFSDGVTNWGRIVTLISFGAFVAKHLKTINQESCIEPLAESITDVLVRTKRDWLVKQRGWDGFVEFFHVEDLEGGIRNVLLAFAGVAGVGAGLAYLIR
Tumour suppressor p53/oncoprotein Mdm2, sequence (P04637 whole entry): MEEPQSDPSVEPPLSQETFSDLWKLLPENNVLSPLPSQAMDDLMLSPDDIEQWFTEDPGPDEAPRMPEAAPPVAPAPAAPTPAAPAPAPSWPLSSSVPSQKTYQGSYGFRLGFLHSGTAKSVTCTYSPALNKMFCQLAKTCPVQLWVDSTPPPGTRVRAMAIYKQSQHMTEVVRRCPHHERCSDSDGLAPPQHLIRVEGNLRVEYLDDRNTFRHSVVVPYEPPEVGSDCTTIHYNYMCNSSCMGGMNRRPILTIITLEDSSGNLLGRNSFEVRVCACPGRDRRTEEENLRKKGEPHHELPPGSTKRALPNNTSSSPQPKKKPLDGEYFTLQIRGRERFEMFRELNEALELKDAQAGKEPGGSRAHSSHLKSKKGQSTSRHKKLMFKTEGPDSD
Tumour suppressor p53/oncoprotein Mdm2, sequence (Q00987 whole entry): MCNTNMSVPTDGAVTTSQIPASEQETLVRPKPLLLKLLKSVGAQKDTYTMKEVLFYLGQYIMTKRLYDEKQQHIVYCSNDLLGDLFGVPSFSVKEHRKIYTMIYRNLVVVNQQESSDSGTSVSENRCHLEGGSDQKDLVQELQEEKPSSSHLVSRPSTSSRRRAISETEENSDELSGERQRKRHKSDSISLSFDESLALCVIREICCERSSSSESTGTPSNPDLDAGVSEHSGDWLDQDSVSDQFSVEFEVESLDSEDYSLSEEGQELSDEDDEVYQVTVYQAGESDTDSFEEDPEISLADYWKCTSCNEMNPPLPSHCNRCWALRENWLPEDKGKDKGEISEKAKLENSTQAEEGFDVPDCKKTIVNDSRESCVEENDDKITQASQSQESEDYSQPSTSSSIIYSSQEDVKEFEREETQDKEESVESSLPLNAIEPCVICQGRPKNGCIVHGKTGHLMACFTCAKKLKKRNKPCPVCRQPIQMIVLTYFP
T3 sequence (P05067 whole entry): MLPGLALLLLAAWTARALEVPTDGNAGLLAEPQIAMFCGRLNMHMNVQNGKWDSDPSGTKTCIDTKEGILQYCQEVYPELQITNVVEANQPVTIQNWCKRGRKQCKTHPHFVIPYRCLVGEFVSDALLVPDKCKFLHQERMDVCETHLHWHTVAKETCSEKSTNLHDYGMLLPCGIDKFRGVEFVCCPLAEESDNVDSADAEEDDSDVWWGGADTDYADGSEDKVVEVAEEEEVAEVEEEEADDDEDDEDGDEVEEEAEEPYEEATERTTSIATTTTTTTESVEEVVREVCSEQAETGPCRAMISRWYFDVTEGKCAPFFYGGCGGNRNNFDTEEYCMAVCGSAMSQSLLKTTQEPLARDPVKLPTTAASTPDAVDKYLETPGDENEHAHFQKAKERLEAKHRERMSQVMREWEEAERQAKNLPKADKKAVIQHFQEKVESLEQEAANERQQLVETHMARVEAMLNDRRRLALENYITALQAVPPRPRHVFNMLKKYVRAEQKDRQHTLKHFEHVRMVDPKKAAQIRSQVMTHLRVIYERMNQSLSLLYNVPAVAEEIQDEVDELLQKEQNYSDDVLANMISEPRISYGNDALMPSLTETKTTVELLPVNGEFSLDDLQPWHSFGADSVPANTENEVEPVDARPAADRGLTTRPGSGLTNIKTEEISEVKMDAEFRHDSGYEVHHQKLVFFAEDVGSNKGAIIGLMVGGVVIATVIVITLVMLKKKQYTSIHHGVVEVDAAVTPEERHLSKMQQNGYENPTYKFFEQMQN
Trypanothione reductase, sequence (A4HSF7 whole entry): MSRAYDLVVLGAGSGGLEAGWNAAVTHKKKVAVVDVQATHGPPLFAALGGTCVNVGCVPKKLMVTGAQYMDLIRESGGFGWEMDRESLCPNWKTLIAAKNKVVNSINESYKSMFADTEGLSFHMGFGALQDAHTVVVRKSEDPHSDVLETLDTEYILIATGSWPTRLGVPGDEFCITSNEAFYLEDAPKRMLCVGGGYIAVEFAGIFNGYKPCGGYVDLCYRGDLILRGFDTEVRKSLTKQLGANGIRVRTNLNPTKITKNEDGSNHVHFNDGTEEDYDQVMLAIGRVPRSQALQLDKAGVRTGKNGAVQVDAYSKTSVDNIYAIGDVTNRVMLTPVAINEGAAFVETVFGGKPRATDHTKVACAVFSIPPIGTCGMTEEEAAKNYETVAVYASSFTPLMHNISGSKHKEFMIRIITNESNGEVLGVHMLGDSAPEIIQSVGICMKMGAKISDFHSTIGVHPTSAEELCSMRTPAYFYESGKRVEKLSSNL
Myc proto-oncogene protein, sequence (P01106 whole entry): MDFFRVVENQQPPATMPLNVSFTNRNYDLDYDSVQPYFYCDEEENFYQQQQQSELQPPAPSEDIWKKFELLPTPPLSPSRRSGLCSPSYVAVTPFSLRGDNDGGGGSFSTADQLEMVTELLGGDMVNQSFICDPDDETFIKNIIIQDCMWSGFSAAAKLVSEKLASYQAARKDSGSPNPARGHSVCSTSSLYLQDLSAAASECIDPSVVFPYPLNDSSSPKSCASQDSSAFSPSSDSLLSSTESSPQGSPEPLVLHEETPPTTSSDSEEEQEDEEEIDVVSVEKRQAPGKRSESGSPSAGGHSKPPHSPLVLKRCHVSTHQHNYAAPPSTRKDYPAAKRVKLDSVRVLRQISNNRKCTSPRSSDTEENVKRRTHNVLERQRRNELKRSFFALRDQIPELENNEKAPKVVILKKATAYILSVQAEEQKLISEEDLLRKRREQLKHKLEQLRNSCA

In the case of `CC(C)[C@@H](CS(=O)(=O)C(C)C)N1C(=O)[C@@](C)(CC(=O)O)C[C@H](c2cccc(Cl)c2)[C@H]1c1ccc(Cl)cc1` [NAVTEMADLIN], the IC50 (SJSA-1) is reported as 0.025 µM.
For `CC(C)COc1cc(C(=O)Nc2ccc(C(=O)O)cc2OC(C)C)ccc1NC(=O)c1ccc([N+](=O)[O-])c(OCC(C)C)c1`, the IC50 [1] was 9.2 µM.
`CCCc1c(NC(=O)Nc2sccc2CCC(=O)O)ccc2sc(N(CCC(=O)O)C(=O)OCC)nc12` gave a T1/2 [2] of 23.1 h.
For `NCCCOc1nc(C(=O)O)ccc1NC(=O)c1ccc(NC(=O)c2ccc([N+](=O)[O-])c(OCCCN)n2)c(OCCCN)n1`, the IC50 [3] was 25 µM and the Kd [4] was 4.1 µM.
`CCC(C)CN(C(=O)c1ccc(N(Cc2ccc3ccccc3c2)C(=O)c2ccc(NCC(C)C)cc2)cc1)c1ccc(C(=O)N[C@H](C(=O)O)[C@H](C)CC)cc1` (stereo partly drawn) gave an IC50 [5] of 9.3 µM and an IC50 [6] of 24 µM.
`CC(C)C[C@H](NC(=O)c1ccc(NC(=O)[C@@H](N)Cc2ccccc2)c(OCCc2c[nH]c3ccccc23)c1)C(=O)O` gave an IC50 [5] of 15 µM.
Work on `Cc1cc(-c2ccc(C(=O)O)c(OCc3ccccc3)c2)cc(C)c1Cl` yielded a Ki [7] of 2.9 µM.
`CC(C)(C)OC(=O)N(Cc1ccccc1)c1nc(NCC(=O)O)c2ncn(Cc3cccc4ccccc34)c2n1` showed an IC50 [8] of 72 µM.
For `CC(C)Oc1cc(NC(=O)[C@H](Cc2ccccc2)NC(=O)c2ccc(N)c(OCc3ccccc3)c2)ccc1C(=O)NCC(=O)O`, the IC50 [5] was 11.9 µM and the IC50 [6] was greater than 100 µM.
For `NCCCOc1nc(C(=O)O)ccc1NC(=O)c1ccc(NC(=O)c2ccc([N+](=O)[O-])c(OCc3ccccc3)n2)c(OCCCN)n1`, the IC50 (N2a [9]) was 1.4 µM and the Kd [10] was 0.7 µM.
In the case of `Cc1cc(-c2cc(CCN)ccc2CCN)c(C)cc1-c1cc(CCN)ccc1CCN`, the IC50 [11] is reported as 47 µM.
In the case of `Oc1ccc(CCNc2nc3nc(n2)N2CCN(CC2Cc2ccccc2)c2nc(nc(Nc4ccc(Oc5ccccc5)cc4)n2)NCCOCCOCCOCCOCCN3)cc1` (stereo not drawn), the Ki [12] is reported as 2.6 µM.
With `O=C(O)CCCNc1nc(NCCc2ccc(O)cc2)nc(N2CCN(c3nc(NCCC(=O)O)nc(Nc4ccc(Oc5ccccc5)cc4)n3)CC2Cc2ccccc2)n1` (stereo not drawn) the Ki [13] was 0.53 µM.
For `CC(C)COc1cc(C(=O)O)ccc1NC(=O)c1ccc([N+](=O)[O-])c(OCc2ccc3ccccc3c2)c1`, the Kd [14] was 10 µM.
In the case of `CCC(C)Oc1cc(C(=O)Nc2cccc3c(OCC(=O)O)cc(C(=O)OC)nc23)nc2c(NC(=O)c3cc(OCC(=O)O)c4cccc(NC(=O)c5cc(OC(C)CC)c6cccc([N+](=O)[O-])c6n5)c4n3)cccc12` (stereo not drawn), the Kd [15] is reported as 2.2 µM and the IC50 (N2a [16]) is reported as 3 µM.
With `CC(C)COc1nc(C(=O)Nc2ccc(C(=O)Nc3ccc(C(=O)Nc4ccc(C(=O)O)nc4OCC(=O)O)nc3OCC(=O)O)nc2OCc2ccccc2)ccc1[N+](=O)[O-]` the IC50 (N2a [9]) was 2.5 µM.
In the case of `CC(C)Oc1cc(NC(=O)[C@H](Cc2ccccc2)NC(=O)c2ccc(N)c(OCc3ccc(Cl)cc3)c2)ccc1C(=O)NCC(=O)O`, the Kd [17] is reported as 1.85 µM.
In the case of `NCCNCc1cncn1-c1ccc(-c2nc(CCc3ccc(-c4ccccc4)cc3)cs2)c(OCCN2CNCC2=O)c1`, the IC50 (Trypanothione reductase) is reported as 8.6 µM.
Work on `COc1cc(CCN)c(-c2cc(C)c(-c3cc(CCN)c(OC)cc3CCN)cc2C)cc1CCN` yielded an IC50 [11] of 14 µM.
Compound `CC(C)C[C@@H]1NCCN([C@@H](CC(C)C)C(=O)N2CCN([C@@H](CCC(N)=O)C(N)=O)C(=O)[C@@H]2C)C1=O` has an Activity (MDA-MB-231) of 50% and a Kd [18] of 5.3 µM.
Work on `Oc1ccc(CCNc2nc3nc(n2)N2CCN(CC2Cc2ccccc2)c2nc(nc(Nc4ccc(Oc5ccccc5)cc4)n2)NCCOCCOCCOCCN3)cc1` (stereo not drawn) yielded a Ki [12] of 2.6 µM.
Compound `NCCNCc1cncn1-c1ccc(-c2nc(CCc3ccc4ccccc4c3)cs2)c(OCCN2CNCC2=O)c1` has an IC50 (Trypanothione reductase) of 5.1 µM.
